According to ChEMBL document CHEMBL4673219, “Novel 5,6-disubstituted pyrrolo[2,3-d]pyrimidine derivatives as broad spectrum antiproliferative agents: Synthesis, cell based assays, kinase profile and molecular docking study” (Bioorg Med Chem, 2018):

Assays:
OVCAR-4 = test: Growth inhibition of human OVCAR-4 cells assessed as growth percentage at 0.1 uM incubated for 48 hrs by sulforhodamine B assay relative to control; assay type: functional; conditions: read-out: Activity
HOP-62 [1] = test: Growth inhibition of human HOP-62 cells assessed as growth percentage at 1 uM incubated for 48 hrs by sulforhodamine B assay relative to control; assay type: functional; conditions: read-out: Activity
UO-31 [2] = test: Growth inhibition of human UO-31 cells assessed as growth percentage at 1 uM incubated for 48 hrs by sulforhodamine B assay relative to control; assay type: functional; conditions: read-out: Activity
SK-MEL-5 [3] = test: Growth inhibition of human SK-MEL-5 cells assessed as growth percentage at 0.01 uM incubated for 48 hrs by sulforhodamine B assay relative to control; assay type: functional; conditions: read-out: Activity
T47D [4] = test: Growth inhibition of human T47D cells assessed as growth percent at 0.1 uM incubated for 48 hrs by sulforhodamine B assay relative to control; assay type: functional; conditions: read-out: Activity
Hs-578T [5] = test: Growth inhibition of human Hs-578T cells assessed as growth percentage at 1 uM incubated for 48 hrs by sulforhodamine B assay relative to control; assay type: functional; conditions: read-out: Activity
MCF7 [6] = test: Growth inhibition of human MCF7 cells incubated for 48 hrs by sulforhodamine B assay; assay type: functional
T47D [7] = test: Growth inhibition of human T47D cells assessed as growth percentage at 0.01 uM incubated for 48 hrs by sulforhodamine B assay relative to control; assay type: functional; conditions: read-out: Activity
Hs-578T [8] = test: Growth inhibition of human Hs-578T cells assessed as growth percentage at 10 uM incubated for 48 hrs by sulforhodamine B assay relative to control; assay type: functional; conditions: read-out: Activity
MDA-MB-435 = test: Growth inhibition of human MDA-MB-435 cells assessed as growth percentage at 10 uM incubated for 48 hrs by sulforhodamine B assay relative to control; assay type: functional; conditions: read-out: Activity
COLO 205 = test: Growth inhibition of human COLO 205 cells assessed as growth percentage at 1 uM incubated for 48 hrs by sulforhodamine B assay relative to control; assay type: functional; conditions: read-out: Activity
HCT-116 = test: Growth inhibition of human HCT-116 cells assessed as growth percentage at 1 uM incubated for 48 hrs by sulforhodamine B assay relative to control; assay type: functional; conditions: read-out: Activity
[9] = Cytotoxicity against human HFF-1 cells assessed as cell growth inhibition by MTT assay; assay type: cell-based
SNB-75 [10] = test: Growth inhibition of human SNB-75 cells assessed as growth percentage at 0.1 uM incubated for 48 hrs by sulforhodamine B assay relative to control; assay type: functional; conditions: read-out: Activity
Malme-3M = test: Growth inhibition of human Malme-3M cells assessed as growth percentage at 0.01 uM incubated for 48 hrs by sulforhodamine B assay relative to control; assay type: functional; conditions: read-out: Activity
SF-268 = test: Growth inhibition of human SF-268 cells assessed as growth percentage at 0.01 uM incubated for 48 hrs by sulforhodamine B assay relative to control; assay type: functional; conditions: read-out: Activity
UACC-62 [11] = test: Growth inhibition of human UACC-62 cells assessed as growth percentage at 100 uM incubated for 48 hrs by sulforhodamine B assay relative to control; assay type: functional; conditions: read-out: Activity
MCF7 [12] = test: Growth inhibition of human MCF7 cells assessed as growth percentage at 0.01 uM incubated for 48 hrs by sulforhodamine B assay relative to control; assay type: functional; conditions: read-out: Activity
UO-31 [13] = test: Growth inhibition of human UO-31 cells assessed as growth percentage at 100 uM incubated for 48 hrs by sulforhodamine B assay relative to control; assay type: functional; conditions: read-out: Activity
TK-10 = test: Growth inhibition of human TK-10 cells assessed as growth percentage at 0.1 uM incubated for 48 hrs by sulforhodamine B assay relative to control; assay type: functional; conditions: read-out: Activity
HCC 2998 [14] = test: Growth inhibition of human HCC 2998 cells assessed as growth percentage at 10 uM incubated for 48 hrs by sulforhodamine B assay relative to control; assay type: functional; conditions: read-out: Activity
MDA-MB-468 = test: Growth inhibition of human MDA-MB-468 cells incubated for 48 hrs by sulforhodamine B assay; assay type: functional
NCI-H226 [15] = test: Growth inhibition of human NCI-H226 cells assessed as growth percentage at 1 uM incubated for 48 hrs by sulforhodamine B assay relative to control; assay type: functional; conditions: read-out: Activity
SNB-75 [16] = test: Growth inhibition of human SNB-75 cells assessed as growth percentage at 1 uM incubated for 48 hrs by sulforhodamine B assay relative to control; assay type: functional; conditions: read-out: Activity
IGROV-1 = test: Growth inhibition of human IGROV-1 assessed as growth percent at 100 uM incubated for 48 hrs by sulforhodamine B assay relative to control; assay type: functional; conditions: read-out: Activity
SN12C = test: Growth inhibition of human SN12C cells assessed as growth percentage at 0.1 uM incubated for 48 hrs by sulforhodamine B assay relative to control; assay type: functional; conditions: read-out: Activity
NCI/ADR-RES = test: Growth inhibition of human NCI/ADR-RES cells assessed as growth percentage at 1 uM incubated for 48 hrs by sulforhodamine B assay relative to control; assay type: functional; conditions: read-out: Activity
SK-MEL-5 [17] = test: Growth inhibition of human SK-MEL-5 cells assessed as growth percentage at 100 uM incubated for 48 hrs by sulforhodamine B assay relative to control; assay type: functional; conditions: read-out: Activity
NCI-H226 [18] = test: Growth inhibition of human NCI-H226 cells assessed as growth percentage at 10 uM incubated for 48 hrs by sulforhodamine B assay relative to control; assay type: functional; conditions: read-out: Activity
HCC 2998 [19] = test: Growth inhibition of human HCC 2998 cells incubated for 48 hrs by sulforhodamine B assay; assay type: functional
MDA-MB-231 = test: Growth inhibition of human MDA-MB-231/ATCC cells assessed as growth percentage at 1 uM incubated for 48 hrs by sulforhodamine B assay relative to control; assay type: functional; conditions: read-out: Activity
OVCAR-8 = test: Growth inhibition of human OVCAR-8 cells assessed as growth percentage at 1 uM incubated for 48 hrs by sulforhodamine B assay relative to control; assay type: functional; conditions: read-out: Activity
UACC-62 [20] = test: Growth inhibition of human UACC-62 cells assessed as growth percentage at 0.1 uM incubated for 48 hrs by sulforhodamine B assay relative to control; assay type: functional; conditions: read-out: Activity
SK-BR-3 = test: Antiproliferative activity against human SK-BR-3 cells assessed as cell growth inhibition measured after 72 hrs by MTT assay; assay type: functional
HOP-62 [21] = test: Growth inhibition of human HOP-62 cells assessed as growth percentage at 0.01 uM incubated for 48 hrs by sulforhodamine B assay relative to control; assay type: functional; conditions: read-out: Activity
786-0 = test: Growth inhibition of human 786-0 cells assessed as growth percentage at 100 uM incubated for 48 hrs by sulforhodamine B assay relative to control; assay type: functional; conditions: read-out: Activity
HOP-92 = test: Growth inhibition of human HOP-92 cells assessed as growth percentage at 0.1 uM incubated for 48 hrs by sulforhodamine B assay relative to control; assay type: functional; conditions: read-out: Activity
MOLT-4 = test: Growth inhibition of human MOLT-4 cells incubated for 48 hrs by sulforhodamine B assay; assay type: functional

CCCCCCCC(=O)Nc1nc2[nH]c(CN3CCN(Cc4cccc(F)c4)CC3)c(CN3CCN(Cc4cccc(F)c4)CC3)c2c(=O)[nH]1
growth at 0.1 µM (OVCAR-4): 84%
growth at 1 µM (HOP-62 [1]): 75%
growth at 1 µM (UO-31 [2]): 25%
growth at 0.01 µM (SK-MEL-5 [3]): 100%
growth at 0.1 µM (T47D [4]): 88%
growth at 1 µM (Hs-578T [5]): 61%
GI50 (MCF7 [6]; 48 h): 190 nM
LC50 (MCF7 [6]; 48 h): 990 nM
TGI (MCF7 [6]; 48 h): 430 nM
GI50 (MCF7 [6]; Homo sapiens, MCF7, 48 h): 186 nM
LC50 (MCF7 [6]; Homo sapiens, MCF7, 48 h): 985 nM
TGI (MCF7 [6]; Homo sapiens, MCF7, 48 h): 428 nM
growth at 0.01 µM (T47D [7]): 95%
growth at 10 µM (Hs-578T [8]): -49.4%
growth at 10 µM (MDA-MB-435): -98.1%
growth at 1 µM (COLO 205): 74%
growth at 1 µM (HCT-116): -91%
GI50 [9]: > 10000 nM
growth at 0.1 µM (SNB-75 [10]): 82%
growth at 0.01 µM (Malme-3M): 98%
growth at 0.01 µM (SF-268): 99%
growth at 100 µM (UACC-62 [11]): -90%
growth at 0.01 µM (MCF7 [12]): 91%
growth at 100 µM (UO-31 [13]): -81%
growth at 0.1 µM (TK-10): 96%
growth at 10 µM (HCC 2998 [14]): -81.8%
GI50 (MDA-MB-468; 48 h): 480 nM
LC50 (concentration killing 50% of cells) (MDA-MB-468; Homo sapiens, MDA-MB-468): 5310 nM
TGI (MDA-MB-468; Homo sapiens, MDA-MB-468): 1840 nM
GI50 (MDA-MB-468; Homo sapiens, MDA-MB-468, 48 h): 477 nM
growth at 1 µM (NCI-H226 [15]): 91%
growth at 1 µM (SNB-75 [16]): 71%
growth at 100 µM (IGROV-1): -70%
growth at 0.1 µM (SN12C): 98%
growth at 1 µM (NCI/ADR-RES): 79%
growth at 100 µM (SK-MEL-5 [17]): -81%
growth at 10 µM (NCI-H226 [18]): 87.6%
GI50 (HCC 2998 [19]; 48 h): 250 nM
TGI (HCC 2998 [19]; 48 h): 570 nM
GI50 (HCC 2998 [19]; Homo sapiens, HCC 2998, 48 h): 248 nM
TGI (HCC 2998 [19]; Homo sapiens, HCC 2998, 48 h): 573 nM
CC50 (HCC 2998 [19]; Homo sapiens, HCC 2998, read-out: LC50 (the source's name)): 2620 nM
growth at 1 µM (MDA-MB-231): 33%
growth at 1 µM (OVCAR-8): -66%
growth at 0.1 µM (UACC-62 [20]): 100%
GI50 (SK-BR-3): 3910 nM
growth at 0.01 µM (HOP-62 [21]): 99%
growth at 100 µM (786-0): -95%
growth at 0.1 µM (HOP-92): 86%
GI50 (MOLT-4; 48 h): 260 nM
LC50 (concentration killing 50% of cells) (MOLT-4; 48 h): > 100000 nM
TGI (MOLT-4; 48 h): 740 nM
GI50 (MOLT-4; Homo sapiens, MOLT-4, 48 h): 258 nM
LC50 (concentration killing 50% of cells) (MOLT-4; Homo sapiens, MOLT-4, 48 h): 100000 nM
TGI (MOLT-4; Homo sapiens, MOLT-4, 48 h): 736 nM
